Assay results from US20170334899A1, “AMINO-SUBSTITUTED ISOTHIAZOLES” (Bayer Pharma Aktiengesellschaft, priority 2014, published 2017).

Legend:
CDK2/CycE = molecular target: T1, CDK2/CycE (Homo sapiens, UniProt P24941); test: CDK2/CycE kinase assay (TR-FRET); type: biochemical; settings: avg, read-out: CDK2 avg (IC50 [mol/l])
T1 construct: GST; purchased ProQinase GmbH (Freiburg, Germany); host or cells: insect cells (Sf9)
In short: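 Read-out is a TR-FRET 665/620 nm emission ratio from EDTA-stopped reactions detected with anti-pRB(pSer807/pSer811), Eu-labelled anti-mouse IgG and streptavidin-XL665, scaled between no-enzyme and uninhibited wells. Reaction: Sf9-expressed GST-CDK2/GST-CycE, 15 min compound preincubation, 10 μM ATP, 0.75 μM biotin-peptide, 25 min, 22° C., pH 8.0 Tris buffer.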

[1] = test system: human cervical tumor cell line HeLa (ATCC CCL-2); test: SAC-Formation - Paclitaxel-Induced Assay; type: cell-based; settings: Homo sapiens, HeLa, 24 h, HeLa cells, paclitaxel 0.05 μM, test range 0.005 μM-20 μM, read-out: IC50 [mol/l] SAC-Formation - Paclitaxel-Induced Assay
In short: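 Read-out is high-content imaging of anti-phospho-H3 Ser10 (mitosis) and Hoechst 33342 (DNA, cell number), with decreased mitotic fraction marking checkpoint breakthrough. Compounds (0.005–20 μM) and 0.05 μM paclitaxel co-added to overnight-plated HeLa for 24 h at 37° C; four-parameter Hill fit.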

SMILES | IC50 (CDK2/CycE) [µM] | IC50 [1] [µM]
Cc1nsc(Nc2cncc(C(F)(F)F)n2)c1C(=O)Nc1ccc(F)c(OC2CCN(CCF)CC2)c1 [Example 269, N-(4-fluoro-3-{[1-(2-fluoroethyl)piperidin-4-yl]oxy}phenyl)-3-methyl-5-{[6-(trifluoromethyl)pyrazin-2-yl]amino}-1,2-thiazole-4-carboxamide] | > 20 | 0.21
Cc1nsc(Nc2cnc(C(F)(F)F)cn2)c1C(=O)Nc1ccc(C(=O)NC2CN(CC(F)(F)F)C2)cc1 [Example 270, 3-methyl-N-(4-{[1-(2,2,2-trifluoroethyl)azetidin-3-yl]carbamoyl}phenyl)-5-{[5-(trifluoromethyl)pyrazin-2-yl]amino}-1,2-thiazole-4-carboxamide] | > 20 | 10
Cc1nsc(Nc2cnc(C(F)(F)F)cn2)c1C(=O)Nc1ccc(C(=O)NC2CN(CC(F)F)C2)cc1 [Example 271, N-(4-{[1-(2,2-difluoroethyl)azetidin-3-yl]carbamoyl}phenyl)-3-methyl-5-{[5-(trifluoromethyl)pyrazin-2-yl]amino}-1,2-thiazole-4-carboxamide] | > 20 | 2.1
Cc1nsc(Nc2cncc(C(F)(F)F)n2)c1C(=O)Nc1ccc(C(=O)N2CCN(CC(F)(F)F)CC2)cc1 [Example 272, 3-methyl-N-(4-{[4-(2,2,2-trifluoroethyl)piperazin-1-yl]carbonyl}phenyl)-5-{[6-(trifluoromethyl)pyrazin-2-yl]amino}-1,2-thiazole-4-carboxamide] | > 20 | 2.4
Cc1nsc(Nc2cncc(C(F)(F)F)n2)c1C(=O)Nc1ccc(C(=O)N2CCN(CC(F)F)CC2)cc1 [Example 273, N-(4-{[4-(2,2-difluoroethyl)piperazin-1-yl]carbonyl}phenyl)-3-methyl-5-{[6-(trifluoromethyl)pyrazin-2-yl]amino}-1,2-thiazole-4-carboxamide] | > 20 | 4.8
Cc1nsc(Nc2cncc(C(F)(F)F)n2)c1C(=O)Nc1ccc(OCCO)nc1 [Example 276, N-[6-(2-hydroxyethoxy)pyridin-3-yl]-3-methyl-5-{[6-(trifluoromethyl)pyrazin-2-yl]amino}-1,2-thiazole-4-carboxamide] | > 20 | 1.9
Cc1nsc(Nc2cnc(C(F)(F)F)cn2)c1C(=O)Nc1ccc(OCCO)nc1 [Example 277, N-[6-(2-hydroxyethoxy)pyridin-3-yl]-3-methyl-5-{[5-(trifluoromethyl)pyrazin-2-yl]amino}-1,2-thiazole-4-carboxamide] | > 20 | 10
Cc1nsc(Nc2cncc(C(F)(F)F)n2)c1C(=O)Nc1ccc(OCCCO)nc1 [Example 278, N-[6-(3-hydroxypropoxy)pyridin-3-yl]-3-methyl-5-{[6-(trifluoromethyl)pyrazin-2-yl]amino}-1,2-thiazole-4-carboxamide] | > 20 | 1.4
Cc1nsc(Nc2cnc(C(F)(F)F)cn2)c1C(=O)Nc1ccc(OCCCO)nc1 [Example 279, N-[6-(3-hydroxypropoxy)pyridin-3-yl]-3-methyl-5-{[5-(trifluoromethyl)pyrazin-2-yl]amino}-1,2-thiazole-4-carboxamide] | > 20 | 0.72
Cc1nsc(Nc2cnc3ccccc3n2)c1C(=O)Nc1cccc(NS(=O)(=O)C2CCN(CC(F)(F)F)CC2)c1 [Example 281, 3-methyl-5-(quinoxalin-2-ylamino)-N-[3-({[1-(2,2,2-trifluoroethyl)piperidin-4-yl]sulfonyl}amino)phenyl]-1,2-thiazole-4-carboxamide] | > 20 | 3.9
Cc1nsc(Nc2cnc3ccccc3n2)c1C(=O)Nc1cccc(NS(=O)(=O)C2CCN(CC(F)F)CC2)c1 [Example 282, N-[3-({[1-(2,2-difluoroethyl)piperidin-4-yl]sulfonyl}amino)phenyl]-3-methyl-5-(quinoxalin-2-ylamino)-1,2-thiazole-4-carboxamide] | > 20 | 3.5
Cc1nsc(Nc2cnc(C(F)(F)F)cn2)c1C(=O)Nc1cccc(NC(=O)OC(C)(C)C)c1 [Example 284, 3-tert-butyl (3-{[(3-methyl-5-{[5-(trifluoromethyl)pyrazin-2-yl]amino}-1,2-thiazol-4-yl)carbonyl]amino}phenyl)carbamate] | > 20 | 0.12
Cc1nsc(Nc2cnc3ccccc3n2)c1C(=O)Nc1cccc(NS(=O)(=O)C2CN(CC(F)(F)F)C2)c1 [Example 285, 3-methyl-5-(quinoxalin-2-ylamino)-N-[3-({[1-(2,2,2-trifluoroethyl)azetidin-3-yl]sulfonyl}amino)phenyl]-1,2-thiazole-4-carboxamide] | > 20 | 6.1
Cc1nsc(Nc2cnc3ccccc3n2)c1C(=O)Nc1cccc(NS(=O)(=O)C2CN(CCF)C2)c1 [Example 287, N-[3-({[1-(2-fluoroethyl)azetidin-3-yl]sulfonyl}amino)phenyl]-3-methyl-5-(quinoxalin-2-ylamino)-1,2-thiazole-4-carboxamide] | > 20 | 8.2
Cc1nsc(Nc2cnc3ccccc3n2)c1C(=O)Nc1cccc(NS(=O)(=O)C2CN(CCC(F)(F)F)C2)c1 [Example 288, 3-methyl-5-(quinoxalin-2-ylamino)-N-[3-({[1-(3,3,3-trifluoropropyl)azetidin-3-yl]sulfonyl}amino)phenyl]-1,2-thiazole-4-carboxamide] | > 20 | 6.1
Cc1nsc(Nc2cnc(C(F)(F)F)cn2)c1C(=O)Nc1ccc(OCCCNCC(F)(F)F)nc1 [Example 292, 3-methyl-N-(6-{3-[(2,2,2-trifluoroethyl)amino]propoxy}pyridin-3-yl)-5-{[5-(trifluoromethyl)pyrazin-2-yl]amino}-1,2-thiazole-4-carboxamide] | > 20 | 0.42

More lines, now with the values ahead:

IC50 (CDK2/CycE) [µM] | IC50 [1] [µM] | SMILES
> 20 | 0.15 | Cc1nsc(Nc2cnc(C(F)(F)F)cn2)c1C(=O)Nc1ccc(F)c(OC2CCN(CC(F)F)CC2)c1 [Example 265, N-(3-{[1-(2,2-difluoroethyl)piperidin-4-yl]oxy}-4-fluorophenyl)-3-methyl-5-{[5-(trifluoromethyl)pyrazin-2-yl]amino}-1,2-thiazole-4-carboxamide]
> 20 | 0.16 | Cc1nsc(Nc2cnc(C(F)(F)F)cn2)c1C(=O)Nc1ccc(F)c(OC2CCN(CCF)CC2)c1 [Example 266, N-(4-fluoro-3-{[1-(2-fluoroethyl)piperidin-4-yl]oxy}phenyl)-3-methyl-5-{[5-(trifluoromethyl)pyrazin-2-yl]amino}-1,2-thiazole-4-carboxamide]
> 20 | 0.02 | Cc1nsc(Nc2cncc(C(F)(F)F)n2)c1C(=O)Nc1ccc(F)c(OC2CCN(CC(F)(F)F)CC2)c1 [Example 267, N-(4-fluoro-3-{[1-(2,2,2-trifluoroethyl)piperidin-4-yl]oxy}phenyl)-3-methyl-5-{[6-(trifluoromethyl)pyrazin-2-yl]amino}-1,2-thiazole-4-carboxamide]
> 20 | 0.11 | Cc1nsc(Nc2cncc(C(F)(F)F)n2)c1C(=O)Nc1ccc(F)c(OC2CCN(CC(F)F)CC2)c1 [Example 268, N-(3-{[1-(2,2-difluoroethyl)piperidin-4-yl]oxy}-4-fluorophenyl)-3-methyl-5-{[6-(trifluoromethyl)pyrazin-2-yl]amino}-1,2-thiazole-4-carboxamide]
5.4 | 9 | Cc1nsc(Nc2cncc(C(F)(F)F)n2)c1C(=O)Nc1ccc(C(=O)N2CCN(CCF)CC2)cc1 [Example 274, N-(4-{[4-(2-fluoroethyl)piperazin-1-yl]carbonyl}phenyl)-3-methyl-5-{[6-(trifluoromethyl)pyrazin-2-yl]amino}-1,2-thiazole-4-carboxamide]
8.4 | 4.4 | CCN1CCN(C(=O)c2ccc(NC(=O)c3c(C)nsc3Nc3cncc(C(F)(F)F)n3)cc2)CC1 [Example 275, N-{4-[(4-ethylpiperazin-1-yl)carbonyl]phenyl}-3-methyl-5-{[6-(trifluoromethyl)pyrazin-2-yl]amino}-1,2-thiazole-4-carboxamide]
11 | 3.7 | Cc1nsc(Nc2cncc(C(F)(F)F)n2)c1C(=O)Nc1ccc(C(=O)NC2CN(CC(F)(F)F)C2)cc1 [Example 280, 3-methyl-N-(4-{[1-(2,2,2-trifluoroethyl)azetidin-3-yl]carbamoyl}phenyl)-5-{[6-(trifluoromethyl)pyrazin-2-yl]amino}-1,2-thiazole-4-carboxamide]
19 | 3.6 | Cc1nsc(Nc2cnc3ccccc3n2)c1C(=O)Nc1cccc(NS(=O)(=O)C2CCN(C(=O)OC(C)(C)C)C2)c1 (centres unmarked) [Example 290, tert-butyl 3-{[3-({[3-methyl-5-(quinoxalin-2-ylamino)-1,2-thiazol-4-yl]carbonyl}amino)phenyl]sulfamoyl} pyrrolidine-1-carboxylate]
14 | 4.8 | Cc1nsc(Nc2cnc3ccccc3n2)c1C(=O)Nc1cccc(NS(=O)(=O)C2CCCN(C(=O)OCc3ccccc3)C2)c1 (centres unmarked) [Example 291, benzyl 3-{[3-({[3-methyl-5-(quinoxalin-2-ylamino)-1,2-thiazol-4-yl]carbonyl}amino)phenyl]sulfamoyl} piperidine-1-carboxylate]
